Experimental data published in patent publication US10688103B2, “Methods for treating hypersomnia” (BALANCE THERAPEUTICS, INC., priority 2014, dated 2020).

Columns and labels:
[1] = test system: patient diagnosed with primary hypersomnia; experiment: Functional Outcomes of Sleep Questionnaire (FOSQ) in hypersomnia patients; type: in vivo, human; parameters: key to FOSQ General Productivity Score / FOSQ Social Outcome Score / FOSQ Activity Level Score / FOSQ Vigilance Score / FOSQ Intimate Relationships and Sexual Activity Score: subscale score ~1-4; higher = improvement; key to Functional Outcomes of Sleep Questionnaire (FOSQ) Total Score: total score ~5-20; higher = improvement
Experimental: In some embodiments, the subject having hypersomnia is assessed using the Functional Outcomes of Sleep Questionnaire (FOSQ). The FOSQ can, e.g., be administered to the subject by asking the subject to rate the impact of a sleep disorder on a scale on activities within certain categories. In some embodiments, an FOSQ total score is determined. In some embodiments, the FOSQ total score is determined from one or more subscale scores (e.g., 1, 2, 3, 4, 5, 6, 7, 8, or more subscale scores). In some embodiments, the FOSQ subscale scores can include, e.g., a General Productivity Score, a Social Outcome Score, an Activity Level Score, a Vigilance Score, or an Intimate Relationship and Sexual Activity Score. A skilled artisan will recognize that higher FOSQ total or subscale scores indicate an improvement in the subject's hypersomnia. In some embodiments, FOSQ total scores can range from about 5 to 20. In some embodiments, FOSQ subscale scores can range from about 1 to 4.
(§1) The patient was selected for PTZ treatments based on a clinical diagnosis of primary hypersomnia and the presence of an elevated level of an endogenous positive GABAA receptor allosteric modulator in the cerebrospinal fluid (CSF) of the subject relative to the CSF of a subject not having hypersomnia. The patient's sleepiness was scored according to the Epworth Sleepiness Scale (ESS), the Functional Outcomes of Sleep Questionnaire (FOSQ) Total Score, and the Multidimensional Fatigue Inventory (MFI). Additional clinical parameters recorded during the course of PTZ treatment included the Clinical Global Impression of Severity (CGI-S), the Clinical Global Impression of Change (CGI-C), the Beck Depression Inventory (BDI-II) Total Score and the patient's reported feelings of fogginess.
(§2) PTZ was orally administered to the patient twice daily at doses of 100 mg in liquid form in a TANG™ brand juice.
(§3) The patients were selected for PTZ treatments and evaluated as described in Example 2. PTZ was orally administered in liquid form in a TANG™ brand juice.
(§4) The patients were first evaluated while receiving flumazenil (Patient 1) or clarithromycin (Patient 2). […] A second evaluation of the two patients was performed at the end of the wash-out period. PTZ was then administered to Patient 1 for two weeks. During the first week, PTZ was administered to Patient 1 twice daily at doses of 100 mg, and during the second week PTZ was administered to Patient 1 at doses of 200 mg. PTZ was administered to Patient 2 for one week twice daily at doses of 100 mg. The patients were evaluated at the end of the first week (Patients 1 and 2) and at the end of the second week (Patient 1).

[2] = test system: patient diagnosed with primary hypersomnia; experiment: Beck Depression Inventory (BDI-II) in hypersomnia patients; type: in vivo, human
Experimental: In some embodiments, the subject having hypersomnia is assessed using the Beck Depression Inventory (current version, published in 1996, is the BDI-II). In some embodiments, a BDI-II total score is determined. In some embodiments, a BDI-II total score of 0-13 indicates minimal depression; a score of 14-19 indicates mild depression; a score of 20-28 indicates moderate depression; and a score of 29-63 indicates severe depression.
as §1, §2, §3, §4

[3] = test system: patient diagnosed with primary hypersomnia; experiment: Multidimensional Fatigue Inventory (MFI) in hypersomnia patients; type: in vivo, human; parameters: key: MFI subscale score; lower scores indicate improvement
Experimental: In some embodiments, the subject having hypersomnia is assessed using the Multidimensional Fatigue Inventory (MFI). The MFI is typically a 20-item scale designed to evaluate five dimensions of fatigue. In some embodiments, a total MFI score is calculated. In some embodiments, the MFI can include one or more scales (e.g., 1, 2, 3, 4, 5, 6, 7, 8, or more scales). In some embodiments, the MFI scales can include, e.g., a General Fatigue Scale, a Physical Activity Scale, a Reduced Activity Scale, a Reduced Motivation Scale, or a Mental Fatigue Scale. Generally, in MFI lower scores indicate improvements in the subject's […].
as §1, §2, §3, §4

[4] = test system: patient diagnosed with primary hypersomnia; experiment: Epworth Sleepiness Scale (ESS) in hypersomnia patients; type: in vivo, human
Text: In some embodiments, total scores in the ESS range from 0 to 24. A skilled artisan will recognize that in the ESS scores at the lower end (towards 0) of the scale indicate an improvement in a subject's hypersomnia. In some embodiments, scores of 10 and above indicate significant hypersomnia symptoms in a subject. In some embodiments, changes of 2-3 points in the ESS indicate clinically meaningful improvements in the subject's hypersomnia.
as §1, §2, §3, §4

[5] = test system: patient diagnosed with primary hypersomnia; experiment: Clinical Global Impression of Severity (CGI-S) in hypersomnia patients; type: in vivo, human
Experimental: In some embodiments, the subject having hypersomnia is assessed using the Clinical Global Impression of Severity (CGI-S).
as §1, §2, §3, §4

[6] = test system: patient diagnosed with primary hypersomnia; experiment: Clinical Global Impression of Change (CGI-C) in hypersomnia patients; type: in vivo, human; conditions: oral
Experimental: In some embodiments, the subject having hypersomnia is assessed using the Clinical Global Impression of Change (CGI-C).
as §1, §2, §3, §4

[7] = test system: human patients diagnosed with primary hypersomnia; experiment: Overall comparison of treatments of hypersomnia in human patients; type: in vivo; conditions: Patients 1 and 2 diagnosed with primary hypersomnia
Experimental: This example describes the treatment of hypersomnia by administering PTZ to two human patients having hypersomnia who were treated with flumazenil (Patient 1) or clarithromycin (Patient 2) prior to the administration of PTZ.
as §3, §4

[8] = test system: patient diagnosed with primary hypersomnia; experiment: Self-reported fogginess score in hypersomnia patients; type: in vivo, human; conditions: oral, average of daily scores over one week
Experimental: In some embodiments, the subject having hypersomnia is assessed using a self-reported fogginess score. It is believed that the fogginess score can be used to evaluate a subject's clarity of thinking, which can reflect the subject's cognitive state. In some embodiments, the subject is asked how foggy the subject feels, e.g., since waking up in the morning or since midday. Scoring in a self-reported fogginess score can, e.g., be scored on a scale from 0 to 3.
as §1, §2, §3, §4

[9] = Patient 2, before PTZ treatment, on clarithromycin
[10] = Patient 1, before PTZ treatment, on flumazenil
[11] = Patient 1 (patient of Example 2), after 1 week on PTZ 100 mg twice daily, oral
[12] = Patient 1, after 2 weeks on PTZ (200 mg twice daily in 2nd week), oral
[13] = Patient 2, after 1 week on PTZ 100 mg twice daily, oral
[14] = Patient of Example 2, after one week of PTZ treatment vs before treatment
[15] = Patient 1 (patient of Example 2), after 1 week on PTZ 100 mg twice daily
[16] = Patient 1, after 2 weeks on PTZ (200 mg twice daily in 2nd week)
[17] = Patient 2, after 1 week on PTZ 100 mg twice daily

CC[C@H]1OC(=O)[C@H](C)[C@@H](O[C@H]2C[C@@](C)(OC)[C@@H](O)[C@H](C)O2)[C@H](C)[C@@H](O[C@@H]2O[C@H](C)C[C@H](N(C)C)[C@H]2O)[C@](C)(OC)C[C@@H](C)C(=O)[C@H](C)[C@@H](O)[C@]1(C)O [Clarithromycin, clarithromycin]
FOSQ Activity Level Score [1, 9]: 2.3 | FOSQ General Productivity Score [1, 9]: 3.4 | FOSQ Intimate Relationships and Sexual Activity Score [1, 9]: 4.0 | FOSQ Social Outcome Score [1, 9]: 3.0 | FOSQ Vigilance Score [1, 9]: 2.1 | Functional Outcomes of Sleep Questionnaire (FOSQ) Total Score [1, 9]: 15 | Beck Depression Inventory (BDI-II) Total Score [2, 9]: 0 | Multidimensional Fatigue Inventory (MFI) General Fatigue Scale [3, 9]: 17 | Multidimensional Fatigue Inventory (MFI) Mental Fatigue Scale [3, 9]: 9 | Multidimensional Fatigue Inventory (MFI) Physical Fatigue Scale [3, 9]: 13 | Multidimensional Fatigue Inventory (MFI) Reduced Activity Scale [3, 9]: 9 | Multidimensional Fatigue Inventory (MFI) Reduced Motivation Scale [3, 9]: 13 | Epworth Sleepiness Scale (ESS) Total Score [4, 9]: 8 | Clinical Global Impression of Severity (CGI-S) [5, 9]: 4

CCOC(=O)c1ncn2c1CN(C)C(=O)c1cc(F)ccc1-2 [Flumazenil, flumazenil]
FOSQ Activity Level Score [1, 10]: 1.4 | FOSQ General Productivity Score [1, 10]: 2.4 | FOSQ Intimate Relationships and Sexual Activity Score [1, 10]: 1.0 | FOSQ Social Outcome Score [1, 10]: 3.0 | FOSQ Vigilance Score [1, 10]: 2.3 | Functional Outcomes of Sleep Questionnaire (FOSQ) Total Score [1, 10]: 10 | Beck Depression Inventory (BDI-II) Total Score [2, 10]: 16 | Multidimensional Fatigue Inventory (MFI) General Fatigue Scale [3, 10]: 19 | Multidimensional Fatigue Inventory (MFI) Mental Fatigue Scale [3, 10]: 16 | Multidimensional Fatigue Inventory (MFI) Physical Fatigue Scale [3, 10]: 19 | Multidimensional Fatigue Inventory (MFI) Reduced Activity Scale [3, 10]: 19 | Multidimensional Fatigue Inventory (MFI) Reduced Motivation Scale [3, 10]: 12 | Epworth Sleepiness Scale (ESS) Total Score [4, 10]: 12 | Clinical Global Impression of Severity (CGI-S) [5, 10]: 6

C1CCc2nnnn2CC1 [PTZ, pentylenetetrazol]
FOSQ Activity Level Score [1, 11]: 2.9 | FOSQ General Productivity Score [1, 11]: 3.3 | FOSQ Intimate Relationships and Sexual Activity Score [1, 11]: 2.0 | FOSQ Social Outcome Score [1, 11]: 3.0 | FOSQ Vigilance Score [1, 11]: 3.1 | Functional Outcomes of Sleep Questionnaire (FOSQ) Total Score [1, 11]: 14.5 | FOSQ Activity Level Score [1, 12]: 2.9 | FOSQ General Productivity Score [1, 12]: 3.7 | FOSQ Intimate Relationships and Sexual Activity Score [1, 12]: 3.0 | FOSQ Social Outcome Score [1, 12]: 3.5 | FOSQ Vigilance Score [1, 12]: 3.7 | Functional Outcomes of Sleep Questionnaire (FOSQ) Total Score [1, 12]: 17.0 | FOSQ Activity Level Score [1, 13]: 3.4 | FOSQ General Productivity Score [1, 13]: 3.4 | FOSQ Intimate Relationships and Sexual Activity Score [1, 13]: 4.0 | FOSQ Social Outcome Score [1, 13]: 3.0 | FOSQ Vigilance Score [1, 13]: 2.9 | Functional Outcomes of Sleep Questionnaire (FOSQ) Total Score [1, 13]: 16.5 | FOSQ Total Score increase [1, 14]: 8 points | Clinical Global Impression of Change (CGI-C) [6, 15]: 3 | Clinical Global Impression of Change (CGI-C) [6, 16]: 2 | Clinical Global Impression of Change (CGI-C) [6, 17]: 2 | Efficacy in the treatment of hypersomnia relative to flumazenil and clarithromycin [7]: superior efficacy | Beck Depression Inventory (BDI-II) Total Score [2, 11]: 8 | Beck Depression Inventory (BDI-II) Total Score [2, 12]: 5 | Beck Depression Inventory (BDI-II) Total Score [2, 13]: 0 | How foggy have you felt since midday? [8, 15]: 0.1 | How foggy have you felt since waking up this morning? [8, 15]: 1.1 | How foggy have you felt since midday? [8, 16]: 0.7 | How foggy have you felt since waking up this morning? [8, 16]: 1.0 | How foggy have you felt since midday? [8, 17]: 1.2 | How foggy have you felt since waking up this morning? [8, 17]: 2.1 | Multidimensional Fatigue Inventory (MFI) General Fatigue Scale [3, 11]: 18 | Multidimensional Fatigue Inventory (MFI) Mental Fatigue Scale [3, 11]: 7 | Multidimensional Fatigue Inventory (MFI) Physical Fatigue Scale [3, 11]: 14 | Multidimensional Fatigue Inventory (MFI) Reduced Activity Scale [3, 11]: 16 | Multidimensional Fatigue Inventory (MFI) Reduced Motivation Scale [3, 11]: 9 | Multidimensional Fatigue Inventory (MFI) General Fatigue Scale [3, 12]: 15 | Multidimensional Fatigue Inventory (MFI) Mental Fatigue Scale [3, 12]: 8 | Multidimensional Fatigue Inventory (MFI) Physical Fatigue Scale [3, 12]: 14 | Multidimensional Fatigue Inventory (MFI) Reduced Activity Scale [3, 12]: 16 | Multidimensional Fatigue Inventory (MFI) Reduced Motivation Scale [3, 12]: 11 | Multidimensional Fatigue Inventory (MFI) General Fatigue Scale [3, 13]: 13 | Multidimensional Fatigue Inventory (MFI) Mental Fatigue Scale [3, 13]: 6 | Multidimensional Fatigue Inventory (MFI) Physical Fatigue Scale [3, 13]: 7 | Multidimensional Fatigue Inventory (MFI) Reduced Activity Scale [3, 13]: 6 | Multidimensional Fatigue Inventory (MFI) Reduced Motivation Scale [3, 13]: 7 | Epworth Sleepiness Scale (ESS) Total Score [4, 11]: 13 | Epworth Sleepiness Scale (ESS) Total Score [4, 12]: 9 | Epworth Sleepiness Scale (ESS) Total Score [4, 13]: 8 | ESS Total Score decrease [4, 14]: 6 points | Clinical Global Impression of Severity (CGI-S) [5, 11]: 5 | Clinical Global Impression of Severity (CGI-S) [5, 12]: 4 | Clinical Global Impression of Severity (CGI-S) [5, 13]: 3
